Source: patent US8334295B2, “Pyrimidine derivatives as HIV reverse transcriptase inhibitors” (Korea Research Institute of Chemical Technology, priority 2007, dated 2012)

Key:
HIV-IIIb = test: Antiviral assay in MT-2 cells; type: cell-based; conditions: Human immunodeficiency virus 1, 120 h; HIV-IIIb infected cells, 5 days, CellTiter-Glo; MT-2 or MT-4 cells not stated
Experimental: For the antiviral assay utilizing MT-2 cells, 50 μL of 2× test concentration of 5-fold serially diluted compound in culture medium with 10% FBS was added to each well of a 96-well plate (9 concentrations) in triplicate. MT-2 cells were infected with HIV-IIIb at a multiplicity of infection (m.o.i) of 0.01 for 3 hours. Fifty microliters of infected cell suspension in culture medium with 10% FBS (˜1.5×10^4 cells) was then added to each well containing […] of diluted compound. The plates were then incubated at 37° C. for 5 days. For the antiviral assay utilizing MT-4 cells, 20 μL of 2× test concentration of 5-fold serially diluted compound in culture medium with 10% FBS was added to each well of a 384-well plate (7 concentrations) in triplicate. MT-4 cells were next mixed with HIV-IIIb at an m.o.i. of 0.1 and 20 μl of virus/cell mixture (2000 cells) was immediately added to each well containing […] of diluted compound. The plates were then incubated at 37° C. for 5 days. After 5 days of incubation, 100 μL of CellTiter-Glo™ Reagent (catalog #G7571, Promega Biosciences, Inc., Madison, Wis.) was added to each well containing MT-2 cells and 40 μL to each well containing MT-4 cells. Cell lysis was carried out by incubation at room temperature for 10 min and chemiluminescence was read.

Row | SMILES | EC50 (HIV-IIIb) [µM] | melting point [°C]
1 | CCn1c(C(=O)c2cc(C)cc(C#N)c2)c(C(C)C)c(=O)[nH]c1=O [Compound 3, 3-(3-ethyl-5-isopropyl-2,6-dioxo-1,2,3,6-tetrahydro-pyrimidine-4-carbonyl)-5-methyl-benzonitrile] | < 0.01 | 
2 | Cc1cc(C#N)cc(C(=O)c2c(C(C)C)c(=O)[nH]c(=O)n2CC2CC2)c1 [Compound 5] | < 0.01 | 
3 | C/C=C(\Cl)Cn1c(C(=O)c2cc(C)cc(C#N)c2)c(C(C)C)c(=O)[nH]c1=O [Compound 6] | < 0.01 | 
4 | CCOCn1c(C(=O)c2cc(C)cc(C#N)c2)c(C(C)C)c(=O)[nH]c1=O [Compound 9] | < 0.01 | 
5 | Cc1cc(C#N)cc(C(=O)c2c(C(C)C)c(=O)[nH]c(=O)n2CCCO)c1 [Compound 25] | < 0.01 | 166 to 167
6 | CCOCn1c(C(=O)c2cc(Cl)cc(C#N)c2)c(C(C)C)c(=O)[nH]c1=O [Compound 38] | < 0.01 | 162 to 164
7 | CCCn1c(C(=O)c2cc(C)cc(C#N)c2)c(C(C)C)c(=O)[nH]c1=O [Compound 46] | < 0.01 | 202 to 203
8 | CCCCn1c(C(=O)c2cc(C)cc(C#N)c2)c(C(C)C)c(=O)[nH]c1=O [Compound 47, 3-(3-Butyl-5-isopropyl-2,6-dioxo-1,2,3,6-tetrahydro-pyrimidine-4-carbonyl)-5-methyl-benzonitrile] | < 0.01 | 
9 | CCOCn1c(C(=O)c2cc(C)cc(C)c2)c(C(C)C)c(=O)[nH]c1=O [Compound 54] | < 0.01 | 
10 | CCOCn1c(C(=O)c2cc(C)cc(/C=C/C#N)c2)c(C(C)C)c(=O)[nH]c1=O [Compound 56] | < 0.01 | 
11 | CCOCn1c(C(F)c2cc(C)cc(C)c2)c(C(C)C)c(=O)[nH]c1=O (centres unmarked) [Compound 57] | < 0.01 | 
12 | C/C=C/Cn1c(C(=O)c2cc(C)cc(C)c2)c(C(C)C)c(=O)[nH]c1=O [Compound 60] | < 0.01 | 
13 | CCCCn1c(C(=O)c2cc(C)cc(C#N)c2)c(CC)c(=O)[nH]c1=O [Compound 70] | < 0.01 | 190 to 191
14 | Cc1cc(C=CC#N)cc(C(=O)c2c(C(C)C)c(=O)[nH]c(=O)n2CC2CC2)c1 [Compound 72, 3-[3-(3-Cyclopropylmethyl-5-isopropyl-2,6-dioxo-1,2,3,6-tetrahydro-pyrimidine-4-carbonyl)-5-methyl-phenyl]-acrylonitrile] | < 0.01 | 225 to 226
15 | CCn1c(C(=O)c2cc(C)cc(C=CC#N)c2)c(C(C)C)c(=O)[nH]c1=O [Compound 73, 3-[3-(3-Ethyl-5-isopropyl-2,6-dioxo-1,2,3,6-tetrahydro-pyrimidine-4-carbonyl)-5-methyl-phenyl]-acrylonitrile] | < 0.01 | 174 to 176
16 | CCCCn1c(C(=O)c2cc(C)cc(C=CC#N)c2)c(C(C)C)c(=O)[nH]c1=O [Compound 74, 3-[3-(3-Butyl-5-isopropyl-2,6-dioxo-1,2,3,6-tetrahydro-pyrimidine-4-carbonyl)-5-methyl-phenyl]-acrylonitrile] | < 0.01 | 164 to 165
17 | CCn1c(C(=O)c2cc(C)cc(CCC#N)c2)c(C(C)C)c(=O)[nH]c1=O [Compound 75, 3-[3-(3-Ethyl-5-isopropyl-2,6-dioxo-1,2,3,6-tetrahydro-pyrimidine-4-carbonyl)-5-methyl-phenyl]-propionitrile] |  | 173 to 174
18 | CCCCn1c(C(=O)c2cc(C)cc(CCC#N)c2)c(C(C)C)c(=O)[nH]c1=O [Compound 76, 3-[3-(3-Butyl-5-isopropyl-2,6-dioxo-1,2,3,6-tetrahydro-pyrimidine-4-carbonyl)-5-methyl-phenyl]-propionitrile] | < 0.01 | 172 to 173
19 | Cc1cc(C#N)cc(C(=O)c2c(C(C)C)c(=O)[nH]c(=O)n2C(C)C)c1 [Compound 77, 3-(3,5-Diisopropyl-2,6-dioxo-1,2,3,6-tetrahydro-pyrimidine-4-carbonyl)-5-methyl-benzonitrile] |  | 278 to 280
20 | Cc1cc(C#N)cc(C(=O)c2c(C(C)C)c(=O)[nH]c(=O)n2CC(C)C)c1 [Compound 78, 3-(3-Isobutyl-5-isopropyl-2,6-dioxo-1,2,3,6-tetrahydro-pyrimidine-4-carbonyl)-5-methyl-benzonitrile] |  | 200 to 201
21 | C=CCCn1c(C(=O)c2cc(C)cc(C#N)c2)c(C(C)C)c(=O)[nH]c1=O [Compound 79, 3-(3-But-3-enyl-5-isopropyl-2,6-dioxo-1,2,3,6-tetrahydro-pyrimidine-4-carbonyl)-5-methyl-benzonitrile] |  | 133 to 134
22 | CC=CCn1c(C(=O)c2cc(C)cc(C#N)c2)c(C(C)C)c(=O)[nH]c1=O [Compound 80, 3-(3-But-2-enyl-5-isopropyl-2,6-dioxo-1,2,3,6-tetrahydro-pyrimidine-4-carbonyl)-5-methyl-benzonitrile] | < 0.01 | 177 to 178
23 | Cc1cc(C#N)cc(C(=O)c2c(C(C)C)c(=O)[nH]c(=O)n2CC2(CC(N)=O)CC2)c1 [Compound 85, 2-{1-[6-(3-Cyano-5-methyl-benzoyl)-5-isopropyl-2,4-dioxo-3,4-dihydro-2H-pyrimidin-1-ylmethyl]-cyclopropyl}-acetamide] |  | 283 to 285
24 | CCn1c(C(C#N)c2cc(C)cc(C#N)c2)c(C(C)C)c(=O)[nH]c1=O (centres unmarked) [Compound 85, 3-[Cyano-(3-ethyl-5-isopropyl-2,6-dioxo-1,2,3,6-tetrahydro-pyrimidin-4-yl)-methyl]-5-methyl-benzonitrile] |  | 260 to 261
25 | Cc1cc(C#N)cc(C(=O)c2c(C(C)C)c(=O)[nH]c(=O)n2CCOC(N)=O)c1 [Compound 86, Carbamic acid 2-[6-(3-cyano-5-methyl-benzoyl)-5-isopropyl-2,4-dioxo-3,4-dihydro-2H-pyrimidin-1-yl]-ethyl ester] | < 0.01 | 
26 | CC=CCn1c(Oc2cc(C)cc(C)c2)c(C(C)C)c(=O)[nH]c1=O [Compound 115, 1-But-2-enyl-6-(3,5-dimethyl-phenoxy)-5-isopropyl-1H-pyrimidine-2,4-dione] | < 0.01 | 
